Results: patent publication US20260159500A1, “KINESIN KIF18A INHIBITOR AND USE THEREOF” (SHANGHAI APEIRON THERAPEUTICS COMPANY LIMITED, priority 2022, published 2026)

Experiments:
HT29 cells = assay: CyQuant cell proliferation activity test in HT29 cells; format: cell-based; settings: Homo sapiens, HT-29, 72 h, 2000 cells per well, 3 days incubation, IC50 by XLFIT, read-out: HT29_IC50_nM
Experimental: HT29 cells were purchased from Nanjing Cobioer Biosciences Co., Ltd.; RPMI-1640 medium, fetal bovine serum, Trypsin-EDTA (0.25%), 96-well plates, and CyQuant reagents were purchased from ThermoFisher (USA); DMSO was purchased from SIGMA (USA).
Culture HT29 cells with RPMI-1640 containing 10% fetal bovine serum under the condition of 37° C. and 5% CO2. Only cells in the logarithmic growth phase can be used for the test.
Use the CyQuant reagent to detect the proliferation inhibitory activity of compounds on HT29 cells. Adjust the cell density and inoculate 100 μL per well into the 96-well plate (HT29 at 2000 cells per well), then incubate overnight under the condition of 37° C. and 5% CO2. Add compounds of various target concentrations (initial concentration of 3000 nM, 3-fold dilution, 9 concentration gradients), and make the DMSO content 0.2%. Incubate the cell plates at 37° C. and 5% CO2 for 3 days. Incubate with CyQuant reagent for 1 h, read the plate by Envision, and calculate IC50 using XLFIT.

OVCAR3 cells = assay: Cell proliferation activity test in OVCAR3 cells (CyQUANT Direct); format: cell-based; settings: Homo sapiens, OVCAR-3, 72 h, 3 days incubation, CyQUANT fluorescence detection, read-out: OVCAR-3_IC50_nM
Experimental: OVCAR3 cells were purchased from Nanjing Cobioer Biosciences Co., Ltd. RPMI-1640 medium, fetal bovine serum, and the CyQUANT Direct Cell Proliferation Assay kit were purchased from Thermo Fisher Scientific, USA; 96-well cell culture plates were sourced from Corning, USA.
Culture OVCAR3 cells with RPMI-1640 medium containing 10% fetal bovine serum and incubate them in a 5% CO2 incubator at 37° C. Only cells in the logarithmic growth phase can be used for the test.
Inoculate OVCAR3 cells into a 96-well cell culture plate at 90 μL per well and incubate overnight in a 5% CO2 incubator at 37° C. Dissolve the compound powder in DMSO to prepare a stock solution of 10 mM. Then perform gradient dilution for the compounds in the microplate to achieve a final concentration of 0-10 μM. Add 10 μL of cell culture medium containing compounds to each well to make the final DMSO content 0.2%. Incubate the cell plates in a 5% CO2 incubator at 37° C. for 3 days. Add 100 μL of CyQUANT detection reagent to each well, react at 37° C. for 60 min, and perform fluorescence detection using the PerkinElmer Envision.

[1] = target: T1, Human KIF18A (amino acid sequence 1-417) (Homo sapiens, UniProt Q8NI77); assay: Enzymatic activity test (ADP-Glo, microtubule-stimulated KIF18A ATPase); format: biochemical; settings: 60 μg/mL microtubules, 25 μM ATP, 2.5 nM KIF18A protein, 120 min at ambient temperature, read-out: KIF18A_nM
T1 construct: purchased Viva Biotech (Shanghai) Ltd
T1 sequence (Q8NI77 1-417): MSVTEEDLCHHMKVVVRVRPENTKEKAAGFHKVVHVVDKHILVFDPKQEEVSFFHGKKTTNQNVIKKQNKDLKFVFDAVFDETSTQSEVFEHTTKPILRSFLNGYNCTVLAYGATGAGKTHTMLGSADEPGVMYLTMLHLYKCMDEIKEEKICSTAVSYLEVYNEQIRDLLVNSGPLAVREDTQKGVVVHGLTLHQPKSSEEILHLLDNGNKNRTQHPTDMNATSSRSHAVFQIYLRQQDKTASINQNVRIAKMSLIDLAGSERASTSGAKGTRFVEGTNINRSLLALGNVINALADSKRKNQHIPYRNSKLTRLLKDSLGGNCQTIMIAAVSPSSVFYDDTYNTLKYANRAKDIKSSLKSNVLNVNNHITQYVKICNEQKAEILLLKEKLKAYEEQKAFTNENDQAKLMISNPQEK
Experimental: Human KIF18A (amino acid sequence 1-417) was purchased from Viva Biotech (Shanghai) Ltd.; the ADP-Glo™ protein kinase kit was acquired from Promega, USA; tubulin was sourced from Cytoskeleton, USA; and the 384-well assay plate and Envision multifunctional microplate reader were obtained from PerkinElmer, USA.
Dissolve the compound powder in DMSO to prepare a stock solution of 10 mM. Then perform gradient dilution for the compounds in the microplate to achieve a final concentration of 0-10 μM. Then, add 2.5 μL each of tubulin, compound, ATP, and KIF18A protein to the microplate in sequence for reaction at ambient temperature for 120 min. The final concentrations in the enzyme reaction are 60 μg/mL for microtubules, 25 μM for ATP, and 2.5 nM for KIF18A protein. After the enzyme reaction, add 10 μL of ADP-GLO reaction reagent to each well and incubate at ambient temperature for 30 min. After that, add 20 μL of detection reagent to each well and incubate at ambient temperature for 30 min in the dark. Finally, perform chemiluminescence detection using the PerkinElmer Envision.

IC50 (HT29 cells) [nM]	IC50 (OVCAR3 cells) [nM]	IC50 [1] [nM]	Compound
40	48	39	C[C@@H]1CN(c2nc(NC(=O)c3ccc(NS(=O)(=O)CCO)cc3N3CCC4(CC3)CC4)cc3cccnc23)CCO1 [Example 47]
35	16	12	O=C(Nc1cc(N2CCC(F)(F)CC2)c2ncnn2c1)c1ccc(NS(=O)(=O)CCO)cc1N1CCC2(CC1)CC2 [Example 18]
30	20	28	O=C(Nc1cn2nccc2c(N2CCC(F)(F)CC2)n1)c1ccc(NS(=O)(=O)CCO)cc1N1CCC2(CC1)CC2 [Example 17]
8	18	35	O=C(Nc1cc(N2CCC(F)(F)CC2)c2cnccc2c1)c1ccc(NS(=O)(=O)CCO)cc1N1CCC2(CC1)CC2 [Example 81, N-(8-(4,4-difluoropiperidin-1-yl)isoquinolin-6-yl)-4-(2-hydroxyethylsulfonamido)-2-(6-azaspiro[2.5]octan-6-yl)benzamide]
22	14	38	O=C(Nc1cc2nccnc2c(N2CCC(F)(F)CC2)n1)c1ccc(NS(=O)(=O)CCO)cc1N1CCC2(CC1)CC2 [Example 59]
6	4	94	Nc1ccc2cc(NC(=O)c3ccc(NS(=O)(=O)CCO)cc3N3CCC4(CC3)CC4)nc(N3CCC(F)(F)CC3)c2n1 [Example 53, N-(2-amino-8-(4,4-difluoropiperidin-1-yl)-1,7-naphthyridin-6-yl)-4-(2-hydroxyethylsulfonamido)-2-(6-azaspiro[2.5]octan-6-yl)benzamide]
56	34	223	CCOC(=O)c1cnc2c(N3CCC(F)(F)CC3)cc(NC(=O)c3ccc(NS(=O)(=O)CCO)cc3N3CCC4(CC3)CC4)cc2c1 [Example 86, Ethyl 6-(2-{6-azaspiro[2.5]octan-6-yl}-4-(2-hydroxyethanesulfonamido)benzoylamino)-8-(4,4-difluoropiperidin-1-yl)quinoline-3-carboxylate]
57	27	29	Cn1cnc2c(N3CCC(F)(F)CC3)nc(NC(=O)c3ccc(NS(=O)(=O)CCO)cc3N3CCC4(CC3)CC4)cc21 [Example 35, N-(4-(4,4-difluoropiperidin-1-yl)-1-methyl-1H-imidazolo[4,5-c]pyridin-6-yl)-4-((2-hydroxyethyl)sulfonamido)-2-(6-azaspiro[2.5]octan-6-yl)benzamide]
31	18	28	O=C(Nc1cc2cccnc2c(N2CCC(F)(F)CC2)n1)c1cc(F)c(NS(=O)(=O)CCO)cc1N1CCC2(CC1)CC2 [Example 45, N-(8-(4,4-difluoropiperidin-1-yl)-1,7-naphthyridin-6-yl)-5-fluoro-4-((2-hydroxyethyl)sulfonamide)-2-(6-azaspiro[2.5]octan-6-yl)benzamide]
372	420	232	COc1ccc2cc(NC(=O)c3ccc(NS(=O)(=O)CCO)cc3N3CCC4(CC3)CC4)cc(N3CCC(F)(F)CC3)c2n1 [Example 65, N-(8-(4,4-difluoropiperidin-1-yl)-2-methoxyquinolin-6-yl)-4-(2-hydroxyethylsulfonamide)-2-(6-azaspiro[2.5]octan-6-yl)benzamide]
21	17	166	C[C@H](CO)S(=O)(=O)Nc1ccc(C(=O)Nc2cc3cccnc3c(N3CCC(F)(F)CC3)c2F)c(N2CCC3(CC2)CC3)c1 [Example 98, 2-{6-azaspiro[2.5]octan-6-yl}-N-[8-(4,4-difluoropiperidin-1-yl)-7-fluoroquinolin-6-yl]-4-[(2R)-1-hydroxypropane-2-sulfonamido]benzamide]
102	80	80	Cc1ncc2c(N3CCC(F)(F)CC3)nc(NC(=O)c3ccc(NS(=O)(=O)CCO)cc3N3CCC4(CC3)CC4)cn12 [Example 12, N-(8-(4,4-difluoropiperidin-1-yl)-3-methylimidazo[1,5-a]pyrazin-6-yl)-4-(2-hydroxyethylsulfonamido)-2-(6-azaspiro[2.5]octan-6-yl)benzamide]
17	9	32	O=C(Nc1cc(N2CCC(F)(F)CC2)c2nccn2c1)c1ccc(NS(=O)(=O)CCO)cc1N1CCC2(CC1)CC2 [Example 14, N-(8-(4,4-difluoropiperidin-1-yl)imidazo[1,2-a]pyridin-6-yl)-4-((2-hydroxyethyl)sulfonamido)-2-(6-azaspiro[2.5]oct-6-yl)benzamide]
28	18	13	O=C(Nc1cn2cnnc2c(N2CCC(F)(F)CC2)n1)c1ccc(NS(=O)(=O)CCO)cc1N1CCC2(CC1)CC2 [Example 19, N-(8-(4,4-difluoropiperidin-1-yl)-[1,2,4]triazolo[4,3-a]pyrazin-6-yl)-4-((2-hydroxyethyl)sulfonamido)-2-(6-azaspiro[2.5]oct-6-yl)benzamide]
17	13.9	153	C[C@@H](CO)S(=O)(=O)Nc1ccc(C(=O)Nc2cc3cccnc3c(N3CCC(F)(F)CC3)n2)c(N2CCC3(CC2)CC3)c1 [Example 97, 2-{6-azaspiro[2.5]octan-6-yl}-N-[8-(4,4-difluoropiperidin-1-yl)-1,7-naphthyridin-6-yl]-4-[(2S)-1-hydroxypropane-2-sulfonamido]benzamide]
7	6	28	O=C(Nc1cc2c(c(N3CCC(F)(F)CC3)n1)COC2)c1ccc(NS(=O)(=O)CCO)cc1N1CCC2(CC1)CC2 [Example 5, N-(4-(4,4-difluoropiperidin-1-yl)-1,3-dihydrofuro[3,4-c]pyridin-6-yl)-4-(2-hydroxyethylsulfonamido)-2-(6-azaspiro[2.5]octan-6-yl)benzamide]
446	166	63	Cn1cnc2cc(NC(=O)c3ccc(NS(=O)(=O)CCO)cc3N3CCC4(CC3)CC4)nc(N3CCC(F)(F)CC3)c21 [Example 34]
387	385	455	Cc1ccc2cc(NC(=O)c3ccc(NS(=O)(=O)CCO)cc3N3CCC4(CC3)CC4)nc(N3CCC(F)(F)CC3)c2n1 [Example 51, N-(8-(4,4-difluoropiperidin-1-yl)-2-methyl-1,7-naphthyridin-6-yl)-4-(2-hydroxyethylsulfonamido)-2-(6-azaspiro[2.5]octan-6-yl)benzamide]
11	12	193	Nc1ccc2cc(NC(=O)c3ccc(NS(=O)(=O)CCO)cc3N3CCC4(CC3)CC4)c(F)c(N3CCC(F)(F)CC3)c2n1 [Example 78, N-(2-amino-8-(4,4-difluoropiperidin-1-yl)-7-fluoroquinolin-6-yl)-4-((2-hydroxyethyl)sulfonamido)-2-(6-azaspiro[2.5]octan-6-yl)benzamide]
18	15	38	O=C(Nc1cc2nsnc2c(N2CCC(F)(F)CC2)n1)c1ccc(NS(=O)(=O)CCO)cc1N1CCC2(CC1)CC2 [Example 39]
